Measurements published in ChEMBL document CHEMBL3352377, “Discovery of selective and orally bioavailable protein kinase Cθ (PKCθ) inhibitors from a fragment hit” (J Med Chem, 2015).
Blank lines part the entries; values can stand above or below the molecule they belong to.

How the values were obtained:
Rattus norvegicus [1] = assay: Increase in left ventricular dP/dt50 in rat cardiovascular model at plasma concentration of 9.7 uM dosed over 30 mins infusions; details: in vivo, iv, 0.5 h
Rattus norvegicus [2] = assay: Increase in left ventricular dP/dt50 in rat cardiovascular model at plasma concentration of 5.8 uM dosed over 30 mins infusions; details: in vivo, iv, 0.5 h
Rattus norvegicus [3] = assay: Increase in left ventricular dP/dt50 in rat cardiovascular model at plasma concentration of 1.3 uM dosed over 30 mins infusions; details: in vivo, iv, 0.5 h
Mus musculus [4] = assay: Reduction in paw swelling in DBA/J mouse model of glucose 6-phosphate isomerase-induced athritis at 10 mg/kg, po dosed twice daily from day 1 to day 17; assay type: functional
[5] = Unbound intrinsic clearance in mouse microsomes; assay type: ADME, Microsome
[6] = Plasma clearance in mouse at 3 mg/kg, iv or 10 mg/kg, po; assay type: ADME, organism-based
[7] = Half life in mouse at 3 mg/kg, iv or 10 mg/kg, po; assay type: ADME, organism-based; details: in vivo
[8] = Plasma concentration in concanavalin A-induced Balb/c mouse at 1 mg/kg, po dosed 2 hrs before concanavalin A challenge; assay type: ADME, organism-based; set-up: dose 1 mg/kg, route oral
[9] = Plasma concentration in concanavalin A-induced Balb/c mouse at 10 mg/kg, po dosed 2 hrs before concanavalin A challenge; assay type: ADME, organism-based; set-up: dose 10 mg/kg, route oral
[10] = Oral bioavailability in rat at 3 mg/kg; assay type: ADME, organism-based; details: in vivo
[11] = AUC in mouse at 3 mg/kg, iv or 10 mg/kg, po; assay type: ADME, organism-based; details: plasma
[12] = Half life in rat at 1 mg/kg, iv or 3 mg/kg, po; assay type: ADME, organism-based; details: in vivo
cells = details: Homo sapiens, T-Blast, 24 h
Description: Inhibition of anti-CD3/anti-CD28 antibody-induced IL2 production in human T-Blast cells after 24 hrs

[13] = Plasma concentration in concanavalin A-induced Balb/c mouse at 100 mg/kg, po dosed 2 hrs before concanavalin A challenge; assay type: ADME, organism-based; set-up: dose 100 mg/kg, route oral
Mus musculus [14] = assay: Reduction in paw swelling in DBA/J mouse model of glucose 6-phosphate isomerase-induced athritis at 30 mg/kg, po dosed twice daily from day 1 to day 17; assay type: functional
[15] = Unbound intrinsic clearance in rat microsomes; assay type: ADME, Microsome
[16] = AUC (0 to t) in DBA/J mouse model of glucose 6-phosphate isomerase-induced athritis at 30 mg/kg, po dosed twice daily from day 1 to day 17; assay type: ADME, organism-based; set-up: dose 30 mg/kg, route oral; details: in vivo
[17] = Unbound intrinsic clearance in human microsomes; assay type: ADME, Microsome
[18] = AUC in rat at 1 mg/kg, iv or 3 mg/kg, po; assay type: ADME, organism-based; details: plasma
Mus musculus [19] = assay: Toxicity in DBA/J mouse model of glucose 6-phosphate isomerase-induced athritis at 100 mg/kg, po dosed twice daily for >10 days; assay type: organism-based; set-up: dose 100 mg/kg, route oral; details: in vivo, 240 h
[20] = Cmax in mouse at 3 mg/kg, iv or 10 mg/kg, po; assay type: ADME, organism-based; details: in vivo
[21] = target: Voltage-gated inwardly rectifying potassium channel KCNH2 (Homo sapiens, UniProt Q12809); assay: Inhibition of human ERG
[22] = target: Protein kinase C alpha type (Homo sapiens, UniProt P17252)
[23] = Cmax in rat at 1 mg/kg, iv or 3 mg/kg, po; assay type: ADME, organism-based; details: in vivo
[24] = Plasma clearance in rat at 1 mg/kg, iv or 3 mg/kg, po; assay type: ADME, organism-based
[25] = Plasma concentration in concanavalin A-induced Balb/c mouse at 30 mg/kg, po dosed 2 hrs before concanavalin A challenge; assay type: ADME, organism-based; set-up: dose 30 mg/kg, route oral
[26] = Fraction unbound in mouse plasma; assay type: ADME, cell-free
[27] = AUC (0 to t) in DBA/J mouse model of glucose 6-phosphate isomerase-induced athritis at 10 mg/kg, po dosed twice daily from day 1 to day 17; assay type: ADME, organism-based; set-up: dose 10 mg/kg, route oral; details: in vivo
[28] = Permeability from apical to basolateral side in MDCK2-MDR1 cells at pH 7.4; assay type: ADME, cell-based, Canis lupus familiaris, MDCK-II; details: dog, MDCK-MDR1, pH 7.4; read-out: permeability
[29] = Plasma concentration in concanavalin A-induced Balb/c mouse at 3 mg/kg, po dosed 2 hrs before concanavalin A challenge; assay type: ADME, organism-based; set-up: dose 3 mg/kg, route oral
[30] = Oral bioavailability in mouse at 10 mg/kg; assay type: ADME, organism-based; details: in vivo
[31] = target: T1, Protein kinase C theta type (Homo sapiens, UniProt Q04759); assay: Inhibition of human recombinant PKCtheta by TR-FRET assay
[32] = target: T1, Protein kinase C theta type
Description: Inhibition of human recombinant PKCtheta expressed in Sf21 cells using Bio-cdc peptide substrate and ATP after 60 mins by time-resolved fluorescence in-vitro kinase assay

Focal adhesion kinase 1 = Focal adhesion kinase 1 (Homo sapiens, UniProt Q05397); assay: Inhibition of FAK (unknown origin) by TR-FRET assay
Focal adhesion kinase 1, sequence (Q05397 whole entry): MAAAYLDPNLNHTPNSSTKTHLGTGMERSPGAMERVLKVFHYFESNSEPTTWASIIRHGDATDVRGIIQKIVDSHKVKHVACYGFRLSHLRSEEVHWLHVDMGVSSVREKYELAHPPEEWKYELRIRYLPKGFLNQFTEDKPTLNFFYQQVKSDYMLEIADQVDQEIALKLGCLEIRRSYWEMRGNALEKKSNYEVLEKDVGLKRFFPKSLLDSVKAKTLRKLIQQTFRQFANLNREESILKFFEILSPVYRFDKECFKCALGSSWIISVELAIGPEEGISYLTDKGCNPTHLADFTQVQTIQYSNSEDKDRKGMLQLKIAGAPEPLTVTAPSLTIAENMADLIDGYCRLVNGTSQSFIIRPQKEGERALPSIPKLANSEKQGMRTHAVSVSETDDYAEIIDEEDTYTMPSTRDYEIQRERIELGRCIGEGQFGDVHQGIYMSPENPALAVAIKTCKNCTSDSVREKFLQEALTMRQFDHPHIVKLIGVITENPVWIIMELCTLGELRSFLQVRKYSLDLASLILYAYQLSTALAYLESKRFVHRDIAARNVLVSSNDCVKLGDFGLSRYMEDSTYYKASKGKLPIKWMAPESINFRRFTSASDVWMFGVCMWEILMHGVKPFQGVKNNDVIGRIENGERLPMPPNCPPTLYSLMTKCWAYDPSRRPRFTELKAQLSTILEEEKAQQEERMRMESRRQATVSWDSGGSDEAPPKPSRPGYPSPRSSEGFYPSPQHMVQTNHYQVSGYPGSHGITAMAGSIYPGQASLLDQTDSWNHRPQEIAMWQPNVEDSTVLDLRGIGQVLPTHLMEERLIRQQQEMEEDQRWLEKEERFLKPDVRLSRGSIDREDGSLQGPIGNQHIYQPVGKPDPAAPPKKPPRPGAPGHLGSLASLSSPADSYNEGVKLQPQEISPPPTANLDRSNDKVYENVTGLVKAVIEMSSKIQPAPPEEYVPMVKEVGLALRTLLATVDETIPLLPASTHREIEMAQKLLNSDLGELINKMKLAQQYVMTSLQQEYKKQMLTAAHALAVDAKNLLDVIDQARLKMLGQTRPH

T1 sequence (Q04759 whole entry): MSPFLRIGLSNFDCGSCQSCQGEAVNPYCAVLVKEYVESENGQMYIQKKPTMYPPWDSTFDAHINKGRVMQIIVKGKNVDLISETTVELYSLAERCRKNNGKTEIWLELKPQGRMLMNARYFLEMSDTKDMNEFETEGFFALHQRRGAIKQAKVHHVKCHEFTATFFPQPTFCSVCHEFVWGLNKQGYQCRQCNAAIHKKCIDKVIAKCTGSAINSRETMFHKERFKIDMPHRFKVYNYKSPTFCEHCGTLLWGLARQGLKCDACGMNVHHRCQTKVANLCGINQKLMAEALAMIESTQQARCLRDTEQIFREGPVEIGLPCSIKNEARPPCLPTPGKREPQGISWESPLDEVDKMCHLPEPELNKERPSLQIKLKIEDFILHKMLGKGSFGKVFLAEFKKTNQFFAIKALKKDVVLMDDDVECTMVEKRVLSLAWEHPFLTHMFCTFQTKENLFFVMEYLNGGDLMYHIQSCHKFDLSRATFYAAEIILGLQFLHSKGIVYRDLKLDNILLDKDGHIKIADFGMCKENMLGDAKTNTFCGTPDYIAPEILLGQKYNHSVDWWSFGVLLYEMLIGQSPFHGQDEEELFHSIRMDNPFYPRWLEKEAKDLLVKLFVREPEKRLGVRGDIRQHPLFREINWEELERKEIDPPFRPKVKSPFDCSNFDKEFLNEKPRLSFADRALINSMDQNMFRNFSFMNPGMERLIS
Voltage-gated inwardly rectifying potassium channel KCNH2, sequence (Q12809 whole entry): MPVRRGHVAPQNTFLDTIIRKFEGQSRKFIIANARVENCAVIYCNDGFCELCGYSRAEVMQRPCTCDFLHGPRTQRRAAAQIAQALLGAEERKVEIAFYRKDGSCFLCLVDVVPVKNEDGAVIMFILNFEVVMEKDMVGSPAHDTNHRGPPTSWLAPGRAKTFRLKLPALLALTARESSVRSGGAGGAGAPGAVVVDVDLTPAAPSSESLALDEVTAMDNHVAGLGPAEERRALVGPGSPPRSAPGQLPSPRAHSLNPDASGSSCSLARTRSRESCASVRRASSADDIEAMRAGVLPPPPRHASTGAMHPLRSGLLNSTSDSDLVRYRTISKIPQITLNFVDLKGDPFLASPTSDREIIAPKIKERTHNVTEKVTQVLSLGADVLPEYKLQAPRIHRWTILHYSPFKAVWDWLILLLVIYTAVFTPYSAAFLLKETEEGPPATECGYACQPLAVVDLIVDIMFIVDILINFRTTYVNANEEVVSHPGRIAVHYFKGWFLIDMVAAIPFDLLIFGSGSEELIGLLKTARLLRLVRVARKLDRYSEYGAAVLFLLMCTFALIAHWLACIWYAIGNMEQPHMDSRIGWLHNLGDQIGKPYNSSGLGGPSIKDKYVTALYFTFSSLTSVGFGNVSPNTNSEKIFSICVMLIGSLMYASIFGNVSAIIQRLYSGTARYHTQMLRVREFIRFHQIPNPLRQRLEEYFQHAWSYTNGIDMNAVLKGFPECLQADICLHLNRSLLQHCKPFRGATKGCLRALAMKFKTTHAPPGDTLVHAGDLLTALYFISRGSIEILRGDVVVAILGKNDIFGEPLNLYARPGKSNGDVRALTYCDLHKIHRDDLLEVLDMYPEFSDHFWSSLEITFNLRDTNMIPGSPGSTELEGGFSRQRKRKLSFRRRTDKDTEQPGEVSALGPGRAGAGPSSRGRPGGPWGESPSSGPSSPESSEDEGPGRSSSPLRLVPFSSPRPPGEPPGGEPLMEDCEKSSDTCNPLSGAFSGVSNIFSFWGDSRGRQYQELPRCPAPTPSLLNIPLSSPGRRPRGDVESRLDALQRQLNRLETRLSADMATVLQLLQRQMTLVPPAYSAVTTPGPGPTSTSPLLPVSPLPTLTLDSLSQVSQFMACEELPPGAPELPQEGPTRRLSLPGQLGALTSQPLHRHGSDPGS

Structure (SMILES): CN1CCN(c2nc(C3=C(c4c[nH]c5ccccc45)C(=O)NC3=O)c3ccccc3n2)CC1 [SOTRASTAURIN]
- Activity (Rattus norvegicus [1]): 76%
- Activity (Rattus norvegicus [2]): 35%
- Activity (Rattus norvegicus [3]): 14%

- CL free [5]: < 5.7 L/h/kg
- clearance [6]: 25 mL/min/kg
- half-life [7]: 186 min
- concentration at 2 h [8]: 37 nM
- concentration at 2 h [9]: 310 nM
- bioavailability [10]: 74%
- AUC [11]: 9260 ng·h/mL
- half-life [12]: 282 min
- IC50 (cells): 120 nM
- concentration at 2 h [13]: 2500 nM
- CL free [15]: < 3.3 L/h/kg
- AUC(0-t) [16]: 15100 ng·h/mL
- CL free [17]: < 2 L/h/kg
- AUC [18]: 782 ng·h/mL
- Cmax [20]: 846 ng/mL
- IC50 [22]: 1700 nM
- Cmax [23]: 160 ng/mL
- clearance [24]: 45 mL/min/kg
- concentration at 2 h [25]: 900 nM
- fraction unbound [26]: 0.27
- AUC(0-t) [27]: 4500 ng·h/mL
- Papp A→B [28]: 1.5 ×10⁻⁶ cm/s
- concentration at 2 h [29]: 110 nM
- bioavailability [30]: 108%
Structure (SMILES): C[C@@H]1C(=O)NN=C2COc3cc(C(F)(F)F)c(NC4(C)CNC4)cc3N21
- inhibition in vivo at 10 mg/kg (Mus musculus [4]): 62%
- inhibition in vivo at 30 mg/kg (Mus musculus [14]): 100%
- Activity (Mus musculus [19]): Toxic
- IC50 [21]: > 30 µM

- IC50 [31]: 19 µM
- IC50 [22]: > 50000 nM
- IC50 [32]: 453 µM
- IC50 (Focal adhesion kinase 1): 156 µM
Structure (SMILES): O=C1CN2C(=NN1)COc1ccccc12
